The values that follow come from PMC12040169 (PLOS Biology, 2025).

The viability is a read-out of living cells in per cent, often relative to untreated cells.

The first series can be described thus: in vitro. Particulars: human, hela cells, % viability.
For `CO[C@H]1CC[C@H](C(=O)NC(Cc2ccsc2)c2cccnc2)CC1` (stereo partly shown) [CBK285114], the viability at 28.5 h, 10 µM is 107%.

In the case of `CC(=O)N1CCCc2cc(C(O)CN3CCC(O)(c4ccc(F)cc4)CC3)ccc21` (stereo not shown) [CBK286481], the viability at 28.5 h, 10 µM is 88.1%. Consider `N=c1n(CC(=O)O)c2ccccc2n1Cc1ccc(Cl)cc1` [CBK262897B], for which the viability at 28.5 h, 10 µM was 89.5%. Take `O=C1NCC2(CCCN(C(=O)c3cccs3)C2)Oc2ccccc21` (stereo not shown) [CBK284900]: the viability at 28.5 h, 10 µM was 102%.

Regarding `COc1ccc(NC(=O)[C@@H]2C=CCN2C(=O)C2CC2)cc1` [CBK284277], the viability at 28.5 h, 10 µM was 98.2%. On the same count and under the same terms, for `Cc1ccc(SCC(=O)NCCCN2CCOCC2)cc1` [CBK267678] the value was 99.3%; for `CCc1c(C)nc2ccccc2c1SCCC(=O)N(C)C` [CBK149718T], 99.9%. Still for that read-out and setting: for `CC(C)Cc1[nH]nc(O)c1-c1ccccc1` [CBK075134] the value was 103%; for `O=c1[nH]c(=S)c2c(n1CCc1ccccn1)CCCC2` [CBK023951G], 101%. The same measure, in the same setting: in the case of `Cc1cc(C)cc(NC(=O)Cc2cc(=O)[nH]c(SCc3ccccc3)n2)c1` [CBK287842] it was 112%. Regarding `COc1ccc2c(c1)nc1n2CCC1O` (stereo not shown) [CBK115449], the viability at 28.5 h, 10 µM was 96.9%. Still for that read-out and setting: for `CCC1C=CCN1S(=O)(=O)c1cccc(C(=O)NCc2cnn(C)c2)c1` (stereo not shown) [CBK307536] the value was 96.4%; for `Cc1cc(OCc2nnc(SCC(=O)Nc3ccc(I)cc3)n2C)ccc1Cl` [CBK268600], 113%.

With `CC(C)S(=O)(=O)N1CCC(n2c(=O)[nH]c3ccccc32)CC1` [CBK149693], the viability at 28.5 h, 10 µM stood at 101%. The same measure, in the same setting: for `C=CCn1c(Cc2csc(NC(=O)c3cc4ccccc4o3)n2)n[nH]c1=S` [CBK295329] the value was 104%. The same measure, in the same setting: in the case of `COc1ccc(-c2cccc(CN(Cc3ccc4c(c3)OCO4)CC(C)O)c2)cc1` (stereo not shown) [CBK286472] it was 107%. In the case of `O=C(Nc1ccccc1-c1nc2ccccc2s1)c1sc2cc(Cl)ccc2c1Cl` [CBK268642], the viability at 28.5 h, 10 µM is 88.5%. On to `CC(C)(C)NC(=O)C1C2CCC3(CC(=O)c4cc(Cl)ccc4O3)C21` (stereo not shown) [CBK284963], for which the viability at 28.5 h, 10 µM was 109%. With `O=C([C@H]1O[C@H](CCN2CCN(c3ccccn3)CC2)CC[C@@H]1O)N1CCCC1` [CBK288730], the viability at 28.5 h, 10 µM was found to be 83.3%. On the same count and under the same terms, for `Cc1ccc(S(=O)(=O)N2CC[C@@H]3C[C@H](NC(=O)C4CC4C)[C@@H]32)cc1` (stereo partly shown) [CBK284968] the value was 90%; for `O=C1c2ccccc2CN1c1cccc2ccccc12` [CBK113190], 85.3%; for `CSc1ccccc1NC(=O)c1cc(Cl)sc1Cl` [CBK057008], 99.2%. Still for that read-out and setting: for `CCCC(=O)N1CCCC([C@@H]2C[C@H](C(F)F)n3nc(C)cc3N2)C1` (stereo partly shown) [CBK284721] the value was 93.2%. Same read-out and setting: for `COc1ccc(C2c3ccccc3C[N+]3(C)CCCN23)cc1` (stereo not shown) [CBK008769] the value was 95.7%; for `COc1cccc(C(C(F)(F)F)P(C)(=O)O)c1` (stereo not shown) [CBK262393], 96.8%. With `Cc1n[nH]c(C)c1CNC(=O)c1cccc2c(C)c(C)[nH]c12` [CBK283068], the viability at 28.5 h, 10 µM amounted to 88.9%. On the same count and under the same terms, for `CC(CC(=O)O)CC(=O)N1CCCC1c1nc(-c2ccc(F)cc2)c2ccccn12` (stereo not shown) [CBK046626] the value was 99.4%. For the molecule `O=C(c1ccccc1F)N1CCC(n2c(=O)oc3ccccc32)CC1` [CBK284346], the viability at 28.5 h, 10 µM came out at 90.1%. On the same count and under the same terms, in the case of `CCC(C(=O)O)N1C(=O)C(=Cc2ccc(-c3ccccc3C(F)(F)F)o2)SC1=S` (stereo not shown) [CBK296985] it was 99.4%; in that of `O=C(CN1CCN(Cc2ccc3c(c2)OCO3)CC1)Nc1ccc(Oc2ccccc2)cc1` [CBK265864], 94%; in that of `COc1ccc(N2CCN(Cc3nc4c(c(=O)n(C)c(=O)n4C)n3CC(C)=O)CC2)cc1` [CBK269465], 103%. On the same count and under the same terms, for `Cn1c(=O)c(C(=O)Nc2ccc(Cl)cc2)cc2cccnc21` [CBK287741] the value was 94.4%; for `CCOC(=O)N(C)c1c(CC)nc2ccc(C(=O)Nc3cc(-c4ccccc4)ccc3OC)cn12` [CBK145478], 89.6%. Consider `Fc1ccc(Oc2nccnc2N2CCN(Cc3ccc(Cl)c(Cl)c3)CC2)cc1` [CBK083007T], for which the viability at 28.5 h, 10 µM was 92.3%.

With `Cc1nc(C)c(C(=O)N2CCC(c3cc4cnccc4[nH]3)CC2)s1` [CBK283432], the viability at 28.5 h, 10 µM stood at 102%. On the same count and under the same terms, for `CC(=O)N1CCC2(CCCC[C@H]3CN(C(C)C)CC[C@@H]3NC(=O)CNC2=O)CC1` [CBK292133] the value was 102%; for `CCn1c(C(C)NC2CCN(CC(=O)OC)CC2)nc2ccccc21` (stereo not shown) [CBK305396], 97.9%. The same measure, in the same setting: in the case of `O=C(O)CC1S/C(=N/N=C/c2cn(Cc3ccccc3)c3ccccc23)NC1=O` (stereo not shown) [CBK264466] it was 102%; in that of `CCn1cnc2cc(NC(=O)CC(C)n3nc(C)cc3C)ccc21` (stereo not shown) [CBK281401], 94.8%. Turning to `CCOC(=O)c1ccccc1NC(=O)CC1Nc2ccccc2NC1=O` (stereo not shown) [CBK263990], the viability at 28.5 h, 10 µM turned out to be 91.3%. The same measure, in the same setting: for `O=C1c2ccc(S(=O)(=O)c3ccc4c(c3)C(=O)N(CCO)C4=O)cc2C(=O)N1CCO` [CBK023065] the value was 112%; for `Cc1cnc2c(Cl)c(C(=O)NCC3(CN4CCOCC4)CC3)nn2c1` [CBK306918], 98.8%; for `NC(=O)CCNC(=O)N1CCc2ccccc2C1` [CBK155288], 104%. Turning to `CC(C)(C)c1ccc(CN2CCN(C(=O)c3ccc(-c4ccc(S(C)(=O)=O)cc4)cn3)CC2)cc1` [CBK160487], the viability at 28.5 h, 10 µM was determined as 96.1%. The same measure, in the same setting: in the case of `Cc1onc(-c2ccc(Cl)cc2)c1C(=O)N1CCN(C2CCN(C)CC2)CC1` [CBK149087] it was 97.1%; in that of `Cc1ccc(-c2noc(CN3CCN(c4ccccc4)CC3)n2)cc1` [CBK265924], 101%. Turning to `C[C@H](Nc1nc(-c2ccoc2)cnc1N)c1ccccc1` [CBK063707], the viability at 28.5 h, 10 µM worked out at 105%. On the same count and under the same terms, for `CC(C)(CN1CCCCC1)NC(=O)CCOc1cccc(F)c1` [CBK282060] the value was 87.2%; for `Cc1nc(C)c(-c2cnc(NS(=O)(=O)c3ccc(Cl)cc3)nc2)s1` [CBK005935], 86.9%; for `NC1=C(c2nc3ccccc3s2)C(=O)CN1CCN1CCOCC1` [CBK265946], 93.1%.

On to `Cn1c(=O)c2c(nc(N3CCOCC3)n2CCC/N=C2\CCCCN2)n(C)c1=O` [CBK218356], for which the viability at 28.5 h, 10 µM was 105%.

For `CC(=O)Nc1cccc(-n2nnnc2SCCCCCF)c1` [CBK306164], the viability at 28.5 h, 10 µM came out at 110%. Turning to `CN1CCN(c2ccc(C(=O)NC3CCCC3)cc2)CC1` [CBK200119], the viability at 28.5 h, 10 µM worked out at 78.5%. Same read-out and setting: in the case of `OCCNCCNCc1ccc(-c2ccccc2)cc1` [CBK278269C] it was 115%. Consider `CCC(=O)NC(=S)Nc1cccc(NC(=O)c2cccc(Cl)c2)c1` [CBK058759], for which the viability at 28.5 h, 10 µM stood at 93.6%.

`OCC[C@H]1CN2CCCC2CN1Cc1cccn1-c1ccccc1F` (stereo partly shown) [CBK282977]: the viability at 28.5 h, 10 µM amounted to 93%. On the same count and under the same terms, for `Cc1ccc(Cn2ncc3c(NCCCN4CCOCC4)ncnc32)cc1` [CBK077470] the value was 94.4%; for `CC1c2ccsc2CCN1C(=O)COc1cccc(Br)c1` (stereo not shown) [CBK305434], 91.9%; for `CC(=O)Nc1ccc(NC(=O)c2cnc(-c3cccc(C)c3)c(-c3ccncc3)c2)cc1C(F)(F)F` [CBK036660], 49.6%. Still for that read-out and setting: for `CC(C)c1ccc(/C=C/C(=O)NCc2ccc(C#N)cc2)cc1` [CBK149642] the value was 91%; for `Cc1nn(C)cc1CN(Cc1ccccc1)CC1CCCO1` (stereo not shown) [CBK283264], 94.4%; for `Cn1cc(CC(=O)NCc2ccccc2)c2ccccc21` [CBK200200], 84.1%. Regarding `O=C(Nc1ccccc1F)c1cc(Cl)sc1Cl` [CBK085969], the viability at 28.5 h, 10 µM came out at 93.3%.

Take `COC(=O)c1ccc(CN2CCCC2)cc1` [CBK029023]: the viability at 28.5 h, 10 µM stood at 106%. `CN1CCN(C(=O)c2cccc(NS(=O)(=O)c3cc(Cl)sc3Cl)c2)CC1` [CBK038966]: the viability at 28.5 h, 10 µM amounted to 96.2%. Still for that read-out and setting: for `COc1nc2nonc2nc1OC` [CBK028544] the value was 110%; for `O=C(Nc1cc(N2CCNCC2)c2occc2c1)c1cccc(C(F)(F)F)c1` [CBK061762C], 86.5%. Regarding `Nn1cnn2c(SCC(=O)Nc3ccc(Cl)cc3)nnc12` [CBK025688], the viability at 28.5 h, 10 µM came out at 99%. Same read-out and setting: for `CCCn1ccnc1CNc1nc(C)nc2c1c(C)nn2C` [CBK307459] the value was 85%; for `OC(CN[C@H]1CC[C@](O)(c2ccc(Cl)cc2)CC1)c1ccccc1` (stereo partly shown) [CBK016206], 98.4%; for `CNc1cc(NS(=O)(=O)c2ccc(N)cc2)nc(NC)n1` [CBK011865C], 96.1%. On to `COCc1cc(O)nc(Cc2c(Cl)cccc2Cl)n1` [CBK022389], for which the viability at 28.5 h, 10 µM was found to be 96.7%. On the same count and under the same terms, for `Cc1cc(C)cc(NC2=N[C@H]3[C@@H](O)[C@H](O)C[C@H](C(=O)N4CCCCC4)[C@H]3S2)c1` [CBK288952] the value was 90%. On the same count and under the same terms, in the case of `O=C1COc2ccccc2CCCC[C@@H]2CN(C(=O)CCN3CCCC3=O)CC[C@H]2N1` [CBK292044] it was 91.8%. On the same count and under the same terms, in the case of `COc1cc(C(=O)N2CCC3(CC2)NC(=O)c2cc(Br)ccc2O3)ccc1C` [CBK149464] it was 92.3%. For `O=C(NNC(=O)c1cc2ccccc2cc1O)Nc1cccc([N+](=O)[O-])c1` [CBK266882], the viability at 28.5 h, 10 µM turned out to be 101%.

Consider `C=CCn1c(Cc2csc(NC(=O)c3ccc(OC)cc3O)n2)n[nH]c1=S` [CBK296752], for which the viability at 28.5 h, 10 µM worked out at 104%. The same measure, in the same setting: for `COCCC(=O)NCc1ccc(OC2CCNCC2)cc1` [CBK024494T] the value was 98.6%.

The same series, now with this note: human, hela cells, % viability, bulk resorufin, single well.
With `C=CCN1C(=O)/C(=N\Nc2ccc(S(=O)(=O)O)cc2)C(=O)NC1=S` [CBK261440], the viability at 28.5 h, 10 µM worked out at 92%.
